We go through 21 molecules from ChEMBL document CHEMBL1158954, “Anti-AIDS agents, 3. Inhibitory effects of colchicine derivatives on HIV replication in H9 lymphocyte cells” (J Nat Prod, 1991).

For assay [1], the system named is H9 (Homo sapiens). Put plainly: microbe, parasite or virus in culture. As to conditions: H9, 72 h.
The subject of assay [2] is H9. Put plainly: Cytotoxicity against human H9 cells. It is filed as ADME, cell-based.

In assay [1], `COc1cc2c(c(OC)c1O)-c1ccc(SC)c(=O)cc1[C@@H](NC(C)=O)CC2` yielded an IC50 of 0.052 µM. The molecule further yielded an EC50 in assay [2] of 0.047 µM. For `COc1cc2c(c(OC)c1O)-c1ccc(SC)c(=O)cc1[C@@H](N)CC2`, the IC50 in assay [1] came out at 1.4 µM. For the same molecule, the EC50 in assay [2] amounted to 1.1 µM.

With `COc1cc(C(=O)N[C@H]2CCc3cc(OC)c(OC)c(OC)c3-c3ccc(OC(=O)c4cc(OC)c(OC)c(OC)c4)c(=O)cc32)cc(OC)c1OC`, a half-maximal response in assay [2] (EC50) required 1.4 µM.

In turn, `CC(=O)N[C@H]1CCc2cc(O)c(O)c(O)c2-c2ccc(O)c(=O)cc21` registered an IC50 in assay [1] of 1.2 µM. Also, the EC50 in assay [2] is 1.2 µM. As for `COc1cc2c(c(OC)c1O)-c1ccc(OC)c(=O)cc1[C@@H](NC(C)=O)CC2` [2-DESMETHYLCOLCHICIN], the midpoint of inhibition in assay [1], the IC50, lay at 0.26 µM. In addition, in assay [2], the EC50 came to 0.26 µM. As to `COc1cc(/C=C/C(=O)N[C@H]2CCc3cc(OC)c(OC)c(OC)c3-c3ccc(OC)c(=O)cc32)cc(OC)c1O`, the IC50 in assay [1] stood at 0.18 µM. This molecule also showed an EC50 in assay [2] of 0.18 µM. In the case of `COc1cc2c(c(OC)c1OC)-c1ccc(OC)c(=O)cc1[C@@H](NC(C)=O)CC2` [COLCHICINE], half-maximal inhibition in assay [1] (IC50) was put at 0.018 µM. Moreover, a half-maximal response in assay [2] (EC50) required 0.01 µM. `COc1cc2c(c(OC)c1OC)-c1ccc(O)c(=O)cc1[C@@H](N)CC2` came in with an IC50 in assay [1] of 1.2 µM. Also, the EC50 in assay [2] amounted to 1.3 µM.

For the molecule `N[C@H]1CCc2cc(O)c(O)c(O)c2-c2ccc(=O)c(O)cc21`, the half-inhibitory concentration (IC50) in assay [1] was 50 µM. Besides, in assay [2], the midpoint of the response, the EC50, lay at 30 µM. Turning to `COc1cc2c(c(OC)c1OC)-c1ccc(N(C)C)c(=O)cc1[C@@H](N)CC2`, inhibition in assay [1] was half-maximal at 1.6 µM (IC50). Moreover, a half-maximal effect in assay [2] (EC50) was put at 0.94 µM.

Regarding `COc1cc(C(=O)N[C@H]2CCc3cc(OC)c(OC)c(OC)c3-c3ccc(OC)c(=O)cc32)cc(OC)c1OC`, the IC50 in assay [1] came to 0.04 µM. Also, the midpoint of the response in assay [2], the EC50, lay at 0.02 µM. Take `COc1cc2c(c(OC)c1OC)-c1ccc(N(C)C)c(=O)cc1[C@@H](NC(C)=O)CC2`: in assay [1], the IC50 stood at 0.085 µM. In addition, the EC50 in assay [2] came to 0.085 µM. `COc1cc2c(c(OC)c1OC)-c1ccc(OC)c(=O)cc1[C@@H](NC(=O)C(F)(F)F)CC2` came in with an IC50 in assay [1] of 0.0066 µM. Moreover, the EC50 in assay [2] worked out at 0.0088 µM. `COc1cc2c(c(OC)c1OC)-c1ccc(=O)c(OC)cc1[C@@H](N)CC2` came in with an IC50 in assay [1] of 2.8 µM. Moreover, the EC50 in assay [2] came to 2.8 µM.

With `COc1cc2c(c(OC)c1O)-c1ccc(O)c(=O)cc1[C@@H](NC(C)=O)CC2`, it took 0.27 µM to reach half-maximal inhibition in assay [1] (IC50). Besides, in assay [2], the EC50 worked out at 0.27 µM. Regarding `O=C(N[C@H]1CCc2cc(O)c(O)c(O)c2-c2ccc(=O)c(O)cc21)C(F)(F)F`, in assay [1], the IC50 is 23 µM. The same molecule returned an EC50 in assay [2] of 23 µM. `COc1cc(/C=C/C(=O)N[C@H]2CCc3cc(OC)c(OC)c(OC)c3-c3ccc(OC)c(=O)cc32)cc(OC)c1OC`: the IC50 in assay [1] stood at 0.0055 µM. The EC50 in assay [2] amounted to 0.0055 µM. In assay [1], `COc1cc2c(c(OC)c1OC)-c1ccc(=O)c(OC)cc1[C@@H](NC(=O)C(F)(F)F)CC2` yielded an IC50 of 0.66 µM. Moreover, the EC50 in assay [2] was 0.66 µM. The molecule `COc1cc2c(c(OC)c1OC)-c1ccc(O)c(=O)cc1[C@@H](NC(=O)C(F)(F)F)CC2` showed an IC50 in assay [1] of 0.2 µM. The molecule also came in with an EC50 in assay [2] of 0.57 µM. `COc1cc2c(c(OC)c1OC)-c1ccc(=O)c(N(C)C)cc1[C@@H](N)CC2`: the IC50 in assay [1] is > 2.7 µM. Also, the EC50 in assay [2] was > 2.7 µM.

`COc1cc2c(c(OC)c1OC)-c1ccc(OC)c(=O)cc1[C@@H](NC(=O)/C=C/c1ccc(O)c(O)c1)CC2` returned an IC50 in assay [1] of 0.29 µM. The molecule also came in with an EC50 in assay [2] of 0.29 µM.
